In patent US20230382940A1, “ANTIVIRAL COMPOUNDS AND METHODS OF MAKING AND USING THE SAME” (Gilead Sciences, Inc., priority 2022, published 2023):
pEC50: −log10 of the molar value.

Test system: Respiratory syncytial virus recombinant with luciferase (RSV-Luc5)
Experiment: HEp-2 RSV-Luc5 384-well assay (EC50 RSVFLUC Hep2-384 v2), Example V
Assay type: cell-based
Conditions: human respiratory syncytial virus, HEp-2, 72 h, read-out: EC50 RSV FLuc Hep-2 384 V2 (per Ex. V)
Source text: Example V: HEp-2 RSV-Luc5 384-Well Assay (EC50 RSVFLUC Hep2-384 v2)
HEp-2 cell line was purchased from ATCC (Manassas, VA Cat #CCL-23) and maintained in Dulbecco's […] (DMEM) (Corning, New York, NY, Cat #15-018CM) supplemented with 10% fetal bovine serum (FBS) (Hyclone, Logan, UT, Cat #SH30071-03) and 1× Penicillin-Streptomycin-L-Glutamine (Corning, New York, NY, Cat #30-009-C1). Cells were passaged 2 times per week to maintain sub-confluent densities and were used for experiments at passage 5-20. Respiratory syncytial virus recombinant with luciferase (RSV-Luc5) (≥1×107 TCID50/ml) was purchased from Microbiologics (Saint Cloud, MN). Viral replication was determined in HEp-2 cells in the following manner.
Compounds are prepared in 100% DMSO in 384-well polypropylene plates (Greiner, Monroe, NC, Cat #784201) with 8 compounds per plate in grouped replicates of 4 at 10 serially diluted concentrations (1:3). The serially diluted compounds were transferred to low dead volume Echo plates (Labcyte, Sunnyvale, CA, Cat #LP-0200).
The test compounds were spotted to 384-well assay plates (Greiner, Monroe, NC, Cat #781091) at 200 nL per well. HEp-2 cells were harvested and suspended in DMEM (supplemented with 10% FBS and 1× Penicillin-Streptomycin-L-Glutamine) and seeded to the pre-spotted assay plates at 4,000 cells per well in 30 μL. RSV-Luc5 viruses were diluted in DMEM (supplemented with 10% FBS and 1× Penicillin-Streptomycin-L-(Glutamine) at 200,000 Infectious Units (IU) per mL and 10 μL per well was added to the assay plates containing cells and compounds, for an MOI=0.5. The assay plates were incubated for 3 days at 37° C. and 5% CO2. At the end of incubation, One-Glo reagent (Promega, Madison, WI, Cat #E6120) was prepared. The assay plates and One-Glo reagent were equilibrated to room temperature for at least 15 minutes. 40 μL per well of One-Glo reagent was added and the plates were incubated at room temp for 15 minutes before reading the luminescence signal on an EnVision multimode plate reader (Perkin Elmer, Waltham, MA). Remdesivir was used as positive control and DMSO was used as negative control. Values were normalized to the positive and negative controls (as 0% and 100% replication, respectively) and data was fitted using non-linear regression analysis by Gilead's dose response tool. The EC50 value for each compound was then determined as the concentration reducing the viral replication by 50%.

| SMILES | pEC50 |
| --- | --- |
| N#C[C@]1(COC(=O)OCCc2ccccc2)O[C@@H](c2ccc3c(N)ncnn23)[C@H](O)[C@@H]1O [Compound 5, ((2R,3S,4R,5S)-5-(4-aminopyrrolo[2,1-f][1,2,4]triazin-7-yl)-2-cyano-3,4-dihydroxytetrahydrofuran-2-yl)methyl phenethyl carbonate] | 4.75 |
| CC(C)CCOC(=O)OC[C@@]1(C#N)O[C@@H](c2ccc3c(N)ncnn23)[C@H](O)[C@@H]1O [Compound 7, ((2R,3S,4R,5S)-5-(4-aminopyrrolo[2,1-f][1,2,4]triazin-7-yl)-2-cyano-3,4-dihydroxytetrahydrofuran-2-yl)methyl isopentyl carbonate] | 4.78 |
| CC(C)COC(=O)Nc1ncnn2c([C@@H]3O[C@](C#N)(CO)[C@@H](O)[C@H]3O)ccc12 [Compound 16, Isobutyl (7-((2S,3R,4S,5R)-5-cyano-3,4-dihydroxy-5-(hydroxymethyl)tetrahydrofuran-2-yl)pyrrolo[2,1-f][1,2,4]triazin-4-yl)carbamate] | 4.30 |
| N#C[C@]1(COC(=O)OC2CCC2)O[C@@H](c2ccc3c(N)ncnn23)[C@H](O)[C@@H]1O [Compound 17, ((2R,3S,4R,5S)-5-(4-aminopyrrolo[2,1-f][1,2,4]triazin-7-yl)-2-cyano-3,4-dihydroxytetrahydrofuran-2-yl)methyl cyclobutyl carbonate] | 4.60 |
| CCCCCCOC(=O)OC[C@@]1(C#N)O[C@@H](c2ccc3c(N)ncnn23)[C@H](O)[C@@H]1O [Compound 19, ((2R,3S,4R,5S)-5-(4-aminopyrrolo[2,1-f][1,2,4]triazin-7-yl)-2-cyano-3,4-dihydroxytetrahydrofuran-2-yl)methyl hexyl carbonate] | 4.87 |
| CCCCCOC(=O)OC[C@@]1(C#N)O[C@@H](c2ccc3c(N)ncnn23)[C@H](O)[C@@H]1O [Compound 20, ((2R,3S,4R,5S)-5-(4-aminopyrrolo[2,1-f][1,2,4]triazin-7-yl)-2-cyano-3,4-dihydroxytetrahydrofuran-2-yl)methyl pentyl carbonate] | 4.86 |
| N#C[C@]1(COC(=O)OC2CCCCC2)O[C@@H](c2ccc3c(N)ncnn23)[C@H](O)[C@@H]1O [Compound 21, ((2R,3S,4R,5S)-5-(4-aminopyrrolo[2,1-f][1,2,4]triazin-7-yl)-2-cyano-3,4-dihydroxytetrahydrofuran-2-yl)methyl cyclohexyl carbonate] | 4.66 |
| CCOC(=O)OC[C@@]1(C#N)O[C@@H](c2ccc3c(N)ncnn23)[C@H](O)[C@@H]1O [Compound 22, ((2R,3S,4R,5S)-5-(4-aminopyrrolo[2,1-f][1,2,4]triazin-7-yl)-2-cyano-3,4-dihydroxytetrahydrofuran-2-yl)methyl ethyl carbonate] | 4.58 |
| N#C[C@]1(COC(=O)OC2CC2)O[C@@H](c2ccc3c(N)ncnn23)[C@H](O)[C@@H]1O [Compound 23, ((2R,3S,4R,5S)-5-(4-aminopyrrolo[2,1-f][1,2,4]triazin-7-yl)-2-cyano-3,4-dihydroxytetrahydrofuran-2-yl)methyl cyclopropyl carbonate] | 4.81 |
| CC[C@H](C)COC(=O)OC[C@@]1(C#N)O[C@@H](c2ccc3c(N)ncnn23)[C@H](O)[C@@H]1O [Compound 28, ((2R,3S,4R,5S)-5-(4-aminopyrrolo[2,1-f][1,2,4]triazin-7-yl)-2-cyano-3,4-dihydroxytetrahydrofuran-2-yl)methyl ((S)-2-methylbutyl) carbonate] | 4.74 |
| N#C[C@]1(COC(=O)OCc2ccccc2)O[C@@H](c2ccc3c(N)ncnn23)[C@H](O)[C@@H]1O [Compound 29, ((2R,3S,4R,5S)-5-(4-aminopyrrolo[2,1-f][1,2,4]triazin-7-yl)-2-cyano-3,4-dihydroxytetrahydrofuran-2-yl)methyl benzyl carbonate] | 4.71 |
| N#C[C@]1(COC(=O)OCC2CCCC2)O[C@@H](c2ccc3c(N)ncnn23)[C@H](O)[C@@H]1O [Compound 30, ((2R,3S,4R,5S)-5-(4-aminopyrrolo[2,1-f][1,2,4]triazin-7-yl)-2-cyano-3,4-dihydroxytetrahydrofuran-2-yl)methyl (cyclopentylmethyl) carbonate] | 4.64 |
| CCC(CC)COC(=O)OC[C@@]1(C#N)O[C@@H](c2ccc3c(N)ncnn23)[C@H](O)[C@@H]1O [Compound 31, ((2R,3S,4R,5S)-5-(4-aminopyrrolo[2,1-f][1,2,4]triazin-7-yl)-2-cyano-3,4-dihydroxytetrahydrofuran-2-yl)methyl (2-ethylbutyl) carbonate] | 4.69 |
| N#C[C@]1(COC(=O)OCC2CC2)O[C@@H](c2ccc3c(N)ncnn23)[C@H](O)[C@@H]1O [Compound 32, ((2R,3S,4R,5S)-5-(4-aminopyrrolo[2,1-f][1,2,4]triazin-7-yl)-2-cyano-3,4-dihydroxytetrahydrofuran-2-yl)methyl (cyclopropylmethyl) carbonate] | 4.69 |
| CCCOCCOC(=O)OC[C@@]1(C#N)O[C@@H](c2ccc3c(N)ncnn23)[C@H](O)[C@@H]1O [Compound 34, ((2R,3S,4R,5S)-5-(4-aminopyrrolo[2,1-f][1,2,4]triazin-7-yl)-2-cyano-3,4-dihydroxytetrahydrofuran-2-yl)methyl (2-propoxyethyl) carbonate] | 4.75 |
| CC(C)(C)CCOC(=O)OC[C@@]1(C#N)O[C@@H](c2ccc3c(N)ncnn23)[C@H](O)[C@@H]1O [Compound 35, ((2R,3S,4R,5S)-5-(4-aminopyrrolo[2,1-f][1,2,4]triazin-7-yl)-2-cyano-3,4-dihydroxytetrahydrofuran-2-yl)methyl (3,3-dimethylbutyl) carbonate] | 4.72 |
| N#C[C@]1(COC(=O)OC2CC3(CCC3)C2)O[C@@H](c2ccc3c(N)ncnn23)[C@H](O)[C@@H]1O [Compound 36, ((2R,3S,4R,5S)-5-(4-aminopyrrolo[2,1-f][1,2,4]triazin-7-yl)-2-cyano-3,4-dihydroxytetrahydrofuran-2-yl)methyl spiro[3.3]heptan-2-yl carbonate] | 4.85 |
| CC1(C)CC(OC(=O)OC[C@@]2(C#N)O[C@@H](c3ccc4c(N)ncnn34)[C@H](O)[C@@H]2O)C1 [Compound 37, ((2R,3S,4R,5S)-5-(4-aminopyrrolo[2,1-f][1,2,4]triazin-7-yl)-2-cyano-3,4-dihydroxytetrahydrofuran-2-yl)methyl (3,3-dimethylcyclobutyl) carbonate] | 4.67 |
| COC[C@@H](C)OC(=O)OC[C@@]1(C#N)O[C@@H](c2ccc3c(N)ncnn23)[C@H](O)[C@@H]1O [Compound 38, ((2R,3S,4R,5S)-5-(4-aminopyrrolo[2,1-f][1,2,4]triazin-7-yl)-2-cyano-3,4-dihydroxytetrahydrofuran-2-yl)methyl ((R)-1-methoxypropan-2-yl) carbonate] | 4.30 |
| N#C[C@]1(COC(=O)O[C@@H]2C[C@@H]3C[C@@H]3C2)O[C@@H](c2ccc3c(N)ncnn23)[C@H](O)[C@@H]1O [Compound 39, ((2R,3S,4R,5S)-5-(4-aminopyrrolo[2,1-f][1,2,4]triazin-7-yl)-2-cyano-3,4-dihydroxytetrahydrofuran-2-yl)methyl ((1R,3r,5S)-bicyclo[3.1.0]hexan-3-yl) carbonate] | 4.55 |
| C[C@H]1CC[C@H](OC(=O)OC[C@@]2(C#N)O[C@@H](c3ccc4c(N)ncnn34)[C@H](O)[C@@H]2O)CC1 [Compound 40, ((2R,3S,4R,5S)-5-(4-aminopyrrolo[2,1-f][1,2,4]triazin-7-yl)-2-cyano-3,4-dihydroxytetrahydrofuran-2-yl)methyl ((1r,4R)-4-methylcyclohexyl) carbonate] | 4.57 |
